Measured values taken from patent US20220008566A1, “Pharmaceutical Composition Comprising a Radiolabeled GRPR Antagonist and a Surfactant” (Advanced Accelerator Applications International SA, priority 2018, published 2022).

Experiments:
[1] = Dosimetry: estimated absorbed dose to tumor, pancreas and kidneys (RADAR realistic mouse model)
Description: The RADAR realistic mouse model (Keenan M A, Stabin M G, Segars W P, Fernald M J. RADAR realistic animal model series for dose assessment. J Nucl Med. 2010; 51:471-476) with a weight of 25 g and data from previously published biodistribution and pharmacokinetic studies (Dalm S U, Bakker I L, de Blois E, et al. 68Ga/^177Lu-NeoBOMB1, a Novel Radiolabeled GRPR Antagonist for Theranostic Use in Oncology. J Nucl Med. 2017; 58:293-299) were used to calculate the dose to the tumor, pancreas and kidneys, when animals were treated with 3×30 MBq/300 pmol, […] or 3×60 MBq/600 pmol ^177Lu-NeoBOMB1. The biodistribution data of our previously published paper (Dalm S U, Bakker I L, de Blois E, et al. ^68Ga/^177Lu-NeoBOMB1, a Novel Radiolabeled GRPR Antagonist for Theranostic Use in Oncology. J Nucl Med. 2017; 58:293-299) were fitted with exponential curves to define the time-activity curve in the tumor and organs. The time integrated activities for ^177Lu were obtained by integrating these exponential curves folded with the 177Lu decay curve (T1/2=6.647 d). Absorbed doses per administered activities were obtained by multiplying with the organ S-values from Keenan et al. (Keenan M A, Stabin M G, Segars W P, Fernald M J. RADAR realistic animal model series for dose assessment. J Nucl Med. 2010; 51:471-476) or by using the spherical node S-values (Stabin M G, Konijnenberg M W. Re-evaluation of absorbed fractions for photons and electrons in spheres of various sizes. J Nucl Med. 2000; 41:149-160) for a 340 mg tumor.
An estimation was made of the radioactivity dose to the tumor, pancreas and kidneys after treatment with 3×30 MBq/300 pmol, 3×40 MBq/400 pmol or 3×60 MBq/600 pmol ^177Lu-NeoBOMB1 (See Table 3 below). For this it was assumed that tumor and organ uptake was similar after each injection.

[2] = test system: PC-3 cells; test: Therapeutic efficacy of 177Lu-NeoBOMB1 in PC-3 xenografted mice; format: in vivo, balb c nu/nu mice; conditions: for time to reach a tumor size of 2000 mm^3: 1 week apart, extrapolated growth curves; for animals without any tumor regrowth after a complete response: n=15
Protocol: Male balb c nu/nu mice were subcutaneously inoculated on the right shoulder with 200 μL 4×10^6 PC-3 cells (American Type Culture Collection) in inoculation medium (⅓ Matrigel high concentration (Corning)+⅔ Hank's balanced salt solution (Thermofisher Scientific)). Four weeks post tumor cell inoculation when an average tumor size of 543+177 mm^3 was reached, animals were divided in four groups: control group (n=10) and therapy group 1-3 (n=15 per group). To determine the efficacy of ^177Lu-NeoBOMB1, animals received either 3 sham injections (control group), 3×30 MBq/300 pmol ^177Lu-NeoBOMB1 (group 1), 3×40 MBq/400 pmol ^177Lu-NeoBOMB1 (group 2) or 3×60 MBq/600 pmol ^177Lu-NeoBOMB1 (group 3) under isoflurane/O2 anesthesia. Injections were administered intravenously and injections were given 1 week apart.
(§1) In both studies, animal weight and/or tumor size was measured bi-weekly. When tumor size was ≥2000 mm^3 or a decrease in animal weight ≥20% within 48 hours was observed, animals were removed from the study. In the efficacy study, animals were followed until the maximum allowed age of 230 days was reached.
The tumor doubling times were determined by fitting an exponential growth function to the tumor volume over time in the control group. In the therapy groups an interval with exponential tumor volume decline was fitted with onset of regrowth after the nadir time. The growth curves were extrapolated beyond the censoring time points for mice with too large tumors (>2000 mm^3) to determine average growth statistics. Tumor growth delay times were individually determined by comparing the times needed to reach the maximum tumor size of 2000 mm^3 with the mean time found in the control group.
Prism software (version 5.01, GraphPad Software) was used for statistical analyses. P values […] were considered statistically significant. The difference in tumor volume growths and delay times for the 4 groups were analyzed with the One-way ANOVA test with Bonferroni's multiple comparison test. Curve fitting was performed according to the least/square fit with the Pearson R^2 to quantify its goodness.

[3] = test system: non-tumor bearing balb c nu/nu male mice; test: Kidney and pancreas toxicity of 177Lu-NeoBOMB1 treatment; format: in vivo; conditions: for histopathology of the kidneys: 24 weeks after therapy
Protocol: To determine the effect of treatment on pancreas and kidney tissue, non-tumor bearing balb c nu/nu male mice received the same treatment as the animals included in the efficacy study. At 2 different time points after the last therapeutic injection (12 weeks and 24 weeks p.i.) animals were euthanized and pancreas and kidney tissue was collected for pathological analysis.
as §1
Pancreatic and kidney tissue collected for pathological analysis was formalin fixed and paraffin embedded. Hematoxylin and eosin staining was performed on […] thick tissue slices using the Ventana Symphony™ H&E protocol (Ventana), to determine differences in tissue structure between the 4 treatment groups. In total 4 tissue slices, […] apart from each other were evaluated of each organ. The hematoxylin and eosin staining's were evaluated by experienced pathologists.

[4] = 3×30 MBq/300 pmol, 1st injection
[5] = 3×30 MBq/300 pmol, 2nd injection
[6] = 3×30 MBq/300 pmol, 3rd injection
[7] = 3×40 MBq/400 pmol, 1st injection
[8] = 3×40 MBq/400 pmol, 2nd injection
[9] = 3×40 MBq/400 pmol, 3rd injection
[10] = 3×60 MBq/600 pmol, 1st injection
[11] = 3×60 MBq/600 pmol, 2nd injection
[12] = 3×60 MBq/600 pmol, 3rd injection

In the case of `CC(C)CC(CC(C)C)NC(=O)[C@H](Cc1cnc[nH]1)NC(=O)CNC(=O)[C@@H](NC(=O)[C@H](C)NC(=O)[C@H](Cc1c[nH]c2ccccc12)NC(=O)[C@H](CCC(N)=O)NC(=O)[C@@H](Cc1ccccc1)NC(=O)COCC(=O)Nc1ccc(CNC(=O)CN2CCN(CC(=O)O)CCN(CC(=O)O)CCN(CC(=O)O)CC2)cc1)C(C)C` [^177Lu-NeoBOMB1, metal not drawn], the “Cumulative absorbed dose, Kidney” value [1, 4] is reported as 1.7 Gy, the “Cumulative absorbed dose, Pancreas” value [1, 4] is reported as 7.9 Gy and the “Cumulative absorbed dose, Tumor” value [1, 4] is reported as 17 Gy. The “Cumulative absorbed dose, Kidney” value [1, 5] was 3.4 Gy, the “Cumulative absorbed dose, Pancreas” value [1, 5] was 16 Gy and the “Cumulative absorbed dose, Tumor” value [1, 5] was 34 Gy. For the same compound, the “Cumulative absorbed dose, Kidney” value [1, 6] was 5.1 Gy, the “Cumulative absorbed dose, Pancreas” value [1, 6] was 32 Gy and the “Cumulative absorbed dose, Tumor” value [1, 6] was 68 Gy. The “Cumulative absorbed dose, Kidney” value [1, 7] was 2.3 Gy, the “Cumulative absorbed dose, Pancreas” value [1, 7] was 11 Gy and the “Cumulative absorbed dose, Tumor” value [1, 7] was 23 Gy. The “Cumulative absorbed dose, Kidney” value [1, 8] was 4.5 Gy, the “Cumulative absorbed dose, Pancreas” value [1, 8] was 21 Gy and the “Cumulative absorbed dose, Tumor” value [1, 8] was 46 Gy. For the same compound, the “Cumulative absorbed dose, Kidney” value [1, 9] was 6.8 Gy, the “Cumulative absorbed dose, Pancreas” value [1, 9] was 42 Gy and the “Cumulative absorbed dose, Tumor” value [1, 9] was 91 Gy. The “Cumulative absorbed dose, Kidney” value [1, 10] was 3.4 Gy, the “Cumulative absorbed dose, Pancreas” value [1, 10] was 16 Gy and the “Cumulative absorbed dose, Tumor” value [1, 10] was 34 Gy. For the same compound, the “Cumulative absorbed dose, Kidney” value [1, 11] was 6.8 Gy, the “Cumulative absorbed dose, Pancreas” value [1, 11] was 32 Gy and the “Cumulative absorbed dose, Tumor” value [1, 11] was 68 Gy. The “Cumulative absorbed dose, Kidney” value [1, 12] was 10 Gy, the “Cumulative absorbed dose, Pancreas” value [1, 12] was 64 Gy and the “Cumulative absorbed dose, Tumor” value [1, 12] was 137 Gy. The “therapy efficacy” value ([2]; all treatment groups vs control group) was “effective”, the Median survival ([2]; group 1, 3×30 MBq/300 pmol) was 82 days and the “time to reach a tumor size of 2000 mm^3” value ([2]; group 1, 3×30 MBq/300 pmol i.v.) was 97 ± 59 days. The “animals without any tumor regrowth after a complete response” value ([2]; group 1, 3×30 MBq/300 pmol) was “two”, the Median survival ([2]; group 2, 3×40 MBq/400 pmol) was 89 days and the “time to reach a tumor size of 2000 mm^3” value ([2]; group 2, 3×40 MBq/400 pmol i.v.) was 103 ± 66 days. The “animals without any tumor regrowth after a complete response” value ([2]; group 2, 3×40 MBq/400 pmol) was “one”, the Median survival ([2]; group 3, 3×60 MBq/600 pmol) was 99 days and the “time to reach a tumor size of 2000 mm^3” value ([2]; group 3, 3×60 MBq/600 pmol i.v.) was 95 ± 26 days. For the same compound, the “histopathology of the kidneys, lymphocyte infiltration” value ([3]; 12 and 24 weeks after last injection, in control as well as treated animals, not related to therapy) was “small areas with lymphocyte infiltration”, the “histopathology of the pancreas” value ([3]; H&E, 12 and 24 weeks after last injection) was “no tissue damage or other abnormalities” and the animal weight ([3]; all groups, follow-up up to 24 weeks) was “no critical decrease in weight”. The “histopathology of the kidneys” value ([3]; group 3 (3×60 MBq/600 pmol), both animals) was “mild chronic inflammatory response”, the “histopathology of the kidneys” value ([3]; lowest dose (3×30 MBq/300 pmol), ID: 864, unlikely related to therapy) was “atrophy and fibrosis were observed in the kidneys of only one animal” and the “decrease in weight within 48 h” value ([3]; one animal from Group 1 (ID: 869)) was “less than 10%”.
